Reference: article PMC5353780, “A novel benzo-heterocyclic amine derivative N30 inhibits influenza virus replication by depression of Inosine-5’-Monophospate Dehydrogenase activity” (Virology Journal, 2017)
Where a name gives a salt, the structure may show the parent alone.

How the values were obtained:
Test in all cases: microbe, parasite or virus in culture
Conditions in all cases: for IC50: Influenza A virus, MDCK; for SI: TC50/IC50
A/tianjinjinnan/15/2009 = format: cell-based, Influenza A virus (H1N1, oseltamivir-resistant)
[1] = system: A/liaoningzhenxing/1109/2010; format: cell-based, Influenza A virus (H1N1, oseltamivir-resistant)
A/fujiantongan/196/2009 = format: cell-based, Influenza A virus (H3N2, amantadine-resistant)
A/hunanzhuhui/1222/2010 = format: cell-based, Influenza A virus (H3N2, amantadine-resistant)

| Structure (SMILES) | IC50 (A/tianjinjinnan/15/2009) [nM] | IC50 [1] [µM] | IC50 (A/fujiantongan/196/2009) [nM] | IC50 (A/hunanzhuhui/1222/2010) [nM] | SI (A/tianjinjinnan/15/2009) | SI [1] | SI (A/fujiantongan/196/2009) | SI (A/hunanzhuhui/1222/2010) |
| --- | --- | --- | --- | --- | --- | --- | --- | --- |
| NC(=O)c1ncn([C@@H]2O[C@H](CO)[C@@H](O)[C@H]2O)n1 [RBV, Ribavirin] | 2540 ± 1250 | 4.92 ± 3.02 | 4420 ± 740 | – | – | – | – | – |
| NC12CC3CC(CC(C3)C1)C2 [AH, amantadine hydrochloride] | 18200 ± 240 | 10.13 ± 0.04 | 78800 ± 3040 | 57200 ± 2230 | – | – | – | – |
| CCC(CC)O[C@@H]1C=C(C(=O)O)C[C@H](N)[C@H]1NC(C)=O [OC, oseltamivir carboxylate] | 2570 ± 100 | 3.2 ± 0.21 | 280 ± 10 | 780 ± 20 | >19.45 | >15.58 | >178.57 | >64.10 |
| O=[N+]([O-])c1ccc(CNc2ccc3ncsc3c2)cc1 [N30, N-(4-nitrophenylmethyl) benzothiazole-6-amine] | 1670 ± 490 | 3.43 ± 3.36 | 1130 ± 430 | 1760 ± 240 | 39.92 | 19.44 | 59.00 | 37.89 |
